PubChem BioAssay (NCI)
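96-well plates; 48 h exposure; 5 concentrations. Endpoints by linear interpolation between flanking doses. Not reached: highest tested concentration assigned. TGI is the concentration that stops growth completely.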

Assays:
Assay in all cases: inhibition of tumour cell growth, NCI panel, 48 h
786-0 renal = tested on: 786-0 renal
A498 renal = tested on: A498 renal
A549 NSCLC = tested on: A549 NSCLC
ACHN renal = tested on: ACHN renal
CAKI-1 renal = tested on: CAKI-1 renal
COLO 205 colon = tested on: COLO 205 colon
DLD-1 colon = tested on: DLD-1 colon
DMS 114 small cell lung = tested on: DMS 114 small cell lung
DMS 273 small cell lung = tested on: DMS 273 small cell lung
EKVX NSCLC = tested on: EKVX NSCLC
HCC-2998 colon = tested on: HCC-2998 colon
HCT-116 colon = tested on: HCT-116 colon
HCT-15 colon = tested on: HCT-15 colon
HL-60(TB) leukemia = tested on: HL-60(TB) leukemia
HOP-18 NSCLC = tested on: HOP-18 NSCLC
HOP-62 NSCLC = tested on: HOP-62 NSCLC
HT29 colon = tested on: HT29 colon
IGROV1 ovarian = tested on: IGROV1 ovarian
K-562 leukemia = tested on: K-562 leukemia
KM12 colon = tested on: KM12 colon
KM20L2 colon = tested on: KM20L2 colon
LOX IMVI melanoma = tested on: LOX IMVI melanoma
LXFL 529 NSCLC = tested on: LXFL 529 NSCLC
M14 melanoma = tested on: M14 melanoma
M19-MEL melanoma = tested on: M19-MEL melanoma
MALME-3M melanoma = tested on: MALME-3M melanoma
MOLT-4 leukemia = tested on: MOLT-4 leukemia
NCI-H226 lung = tested on: NCI-H226 lung
NCI-H23 lung = tested on: NCI-H23 lung
NCI-H522 lung = tested on: NCI-H522 lung
OVCAR-3 ovarian = tested on: OVCAR-3 ovarian
OVCAR-4 ovarian = tested on: OVCAR-4 ovarian
OVCAR-5 ovarian = tested on: OVCAR-5 ovarian
OVCAR-8 ovarian = tested on: OVCAR-8 ovarian
RPMI-8226 leukemia = tested on: RPMI-8226 leukemia
RXF 393 renal = tested on: RXF 393 renal
SF-268 CNS = tested on: SF-268 CNS
SF-295 CNS = tested on: SF-295 CNS
SK-MEL-2 melanoma = tested on: SK-MEL-2 melanoma
SK-MEL-28 melanoma = tested on: SK-MEL-28 melanoma
SK-MEL-5 melanoma = tested on: SK-MEL-5 melanoma
SK-OV-3 ovarian = tested on: SK-OV-3 ovarian
SN12C renal = tested on: SN12C renal
SNB-19 CNS = tested on: SNB-19 CNS
SNB-75 CNS = tested on: SNB-75 CNS
SR leukemia = tested on: SR leukemia
SW-620 colon = tested on: SW-620 colon
TK-10 renal = tested on: TK-10 renal
U251 CNS = tested on: U251 CNS
UACC-257 melanoma = tested on: UACC-257 melanoma
UACC-62 melanoma = tested on: UACC-62 melanoma
UO-31 renal = tested on: UO-31 renal
BT-549 breast = tested on: BT-549 breast
CCRF-CEM leukemia = tested on: CCRF-CEM leukemia
DU-145 prostate = tested on: DU-145 prostate
HOP-92 NSCLC = tested on: HOP-92 NSCLC
HS 578T breast = tested on: HS 578T breast
MCF7 breast = tested on: MCF7 breast
MDA-MB-231 breast = tested on: MDA-MB-231 breast
MDA-MB-435 = tested on: MDA-MB-435
MDA-N = tested on: MDA-N
NCI-H460 lung = tested on: NCI-H460 lung
NCI/ADR-RES ovarian = tested on: NCI/ADR-RES ovarian
PC-3 prostate = tested on: PC-3 prostate
SF-539 CNS = tested on: SF-539 CNS
T-47D breast = tested on: T-47D breast

Cc1ccccc1NC(=O)/C=N/O
TGI (786-0 renal): > 100 µM
TGI (A498 renal): > 100 µM
TGI (A549 NSCLC): > 100 µM
TGI (ACHN renal): > 100 µM
TGI (CAKI-1 renal): > 100 µM
TGI (COLO 205 colon): > 100 µM
TGI (DLD-1 colon): > 100 µM
TGI (DMS 114 small cell lung): > 100 µM
TGI (DMS 273 small cell lung): > 100 µM
TGI (EKVX NSCLC): 39.6 µM
TGI (HCC-2998 colon): > 100 µM
TGI (HCT-116 colon): > 100 µM
TGI (HCT-15 colon): > 100 µM
TGI (HL-60(TB) leukemia): 48.5 µM
TGI (HOP-18 NSCLC): > 100 µM
TGI (HOP-62 NSCLC): > 100 µM
TGI (HT29 colon): > 100 µM
TGI (IGROV1 ovarian): > 100 µM
TGI (K-562 leukemia): > 100 µM
TGI (KM12 colon): > 100 µM
TGI (KM20L2 colon): 32 µM
TGI (LOX IMVI melanoma): > 100 µM
TGI (LXFL 529 NSCLC): > 100 µM
TGI (M14 melanoma): > 100 µM
TGI (M19-MEL melanoma): > 100 µM
TGI (MALME-3M melanoma): > 100 µM
TGI (MOLT-4 leukemia): > 100 µM
TGI (NCI-H226 lung): > 100 µM
TGI (NCI-H23 lung): > 100 µM
TGI (NCI-H522 lung): > 100 µM
TGI (OVCAR-3 ovarian): > 100 µM
TGI (OVCAR-4 ovarian): > 100 µM
TGI (OVCAR-5 ovarian): > 100 µM
TGI (OVCAR-8 ovarian): > 100 µM
TGI (RPMI-8226 leukemia): > 100 µM
TGI (RXF 393 renal): > 100 µM
TGI (SF-268 CNS): > 100 µM
TGI (SF-295 CNS): > 100 µM
TGI (SK-MEL-2 melanoma): > 100 µM
TGI (SK-MEL-28 melanoma): > 100 µM
TGI (SK-MEL-5 melanoma): > 100 µM
TGI (SK-OV-3 ovarian): > 100 µM
TGI (SN12C renal): > 100 µM
TGI (SNB-19 CNS): > 100 µM
TGI (SNB-75 CNS): > 100 µM
TGI (SR leukemia): > 100 µM
TGI (SW-620 colon): > 100 µM
TGI (TK-10 renal): > 100 µM
TGI (U251 CNS): > 100 µM
TGI (UACC-257 melanoma): > 100 µM
TGI (UACC-62 melanoma): 27.9 µM
TGI (UO-31 renal): > 100 µM

C=C1C(=O)O[C@H]2C1C[C@@H](O)/C(C)=C/CC[C@@]1(C)O[C@H]21 (stereo partly specified)
TGI (786-0 renal): > 48.2 µM
TGI (A498 renal): 63.1 µM
TGI (A549 NSCLC): > 91 µM
TGI (ACHN renal): 37.7 µM
TGI (BT-549 breast): > 44.5 µM
TGI (CAKI-1 renal): 12.5 µM
TGI (CCRF-CEM leukemia): 12.6 µM
TGI (COLO 205 colon): > 36.9 µM
TGI (DU-145 prostate): > 56 µM
TGI (EKVX NSCLC): 38.9 µM
TGI (HCC-2998 colon): > 52.6 µM
TGI (HCT-116 colon): 23.6 µM
TGI (HCT-15 colon): 58.8 µM
TGI (HL-60(TB) leukemia): 9.27 µM
TGI (HOP-62 NSCLC): > 95.6 µM
TGI (HOP-92 NSCLC): 22.9 µM
TGI (HS 578T breast): > 89.5 µM
TGI (HT29 colon): > 57 µM
TGI (IGROV1 ovarian): > 43.8 µM
TGI (K-562 leukemia): 28.8 µM
TGI (KM12 colon): > 100 µM
TGI (LOX IMVI melanoma): 26.6 µM
TGI (M14 melanoma): 37.4 µM
TGI (MALME-3M melanoma): 16.9 µM
TGI (MCF7 breast): 35 µM
TGI (MDA-MB-231 breast): 44.8 µM
TGI (MDA-MB-435): 23.7 µM
TGI (MDA-N): > 50.9 µM
TGI (MOLT-4 leukemia): 22.3 µM
TGI (NCI-H226 lung): > 96.4 µM
TGI (NCI-H23 lung): 31.9 µM
TGI (NCI-H460 lung): > 68.5 µM
TGI (NCI-H522 lung): 15.1 µM
TGI (NCI/ADR-RES ovarian): > 87.9 µM
TGI (OVCAR-3 ovarian): 21.5 µM
TGI (OVCAR-4 ovarian): > 43.4 µM
TGI (OVCAR-5 ovarian): > 53.8 µM
TGI (OVCAR-8 ovarian): 45.1 µM
TGI (PC-3 prostate): > 49.3 µM
TGI (RPMI-8226 leukemia): 25.8 µM
TGI (RXF 393 renal): 26.5 µM
TGI (SF-268 CNS): > 100 µM
TGI (SF-295 CNS): > 100 µM
TGI (SF-539 CNS): 54.3 µM
TGI (SK-MEL-2 melanoma): > 54.8 µM
TGI (SK-MEL-28 melanoma): 33.7 µM
TGI (SK-MEL-5 melanoma): 49.1 µM
TGI (SK-OV-3 ovarian): > 82.7 µM
TGI (SN12C renal): > 55.9 µM
TGI (SNB-19 CNS): > 100 µM
TGI (SNB-75 CNS): 34.7 µM
TGI (SR leukemia): 44.9 µM
TGI (SW-620 colon): 17.9 µM
TGI (T-47D breast): 50 µM
TGI (TK-10 renal): 33.4 µM
TGI (U251 CNS): > 53.2 µM
TGI (UACC-257 melanoma): 46.8 µM
TGI (UACC-62 melanoma): > 54.2 µM
TGI (UO-31 renal): > 49.6 µM
